The values below come from article PMC7465344 (Pharmaceuticals, 2020).

One series deals with T1, hA3 AR (Homo sapiens, UniProt P0DMS8).
T1 sequence (P0DMS8 1-318): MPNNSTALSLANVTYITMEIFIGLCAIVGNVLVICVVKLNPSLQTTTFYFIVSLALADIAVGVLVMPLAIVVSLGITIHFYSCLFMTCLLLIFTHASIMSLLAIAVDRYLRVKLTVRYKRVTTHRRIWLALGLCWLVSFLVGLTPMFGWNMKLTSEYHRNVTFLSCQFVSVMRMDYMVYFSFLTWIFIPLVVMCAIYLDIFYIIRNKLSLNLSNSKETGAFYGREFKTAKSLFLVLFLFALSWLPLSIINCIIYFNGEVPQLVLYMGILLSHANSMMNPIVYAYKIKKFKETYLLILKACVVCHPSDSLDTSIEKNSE
The experiment in a line: Competition binding of [125I]AB-MECA to hA3 AR in CHO cell membranes. Particulars: for inhibition at 10 µM: read-out: hA3AR percentage of inhibition (I%).

For series [1], the target named is T2, hA2A AR (Homo sapiens, UniProt P29274). The series is described as follows: Competition binding of [3H]ZM241385 to hA2A AR in CHO cell membranes.
Experimental: (§1) For membrane preparation, the cells were washed with phosphate-buffered saline and scraped off T75 flasks in an ice-cold hypotonic buffer (5 mMTris-HCl, 1 mM EDTA, pH 7.4). The cell suspensions were homogenized with a Polytron, centrifuged for 30 min at 40,000× g at 4 °C and the resulting membrane pellets were used for competition binding experiments [44].
(§2) Non-specific binding was defined as binding in the presence of 1 μM DPCPX and was always <10% of the total binding [44]. […] Non-specific binding was defined as binding in the presence of 1 μM ABMECA and was always < 10% of the total binding [46]. Bound and free radioactivity were separated by filtering the assay mixture through Whatman GF/B glass fiber filters using a Brandel cell harvester (Brandel Instruments, Unterföhring, Germany).
(§3) The protein concentration was determined according to a Bio-Rad method with bovine albumin as a standard reference. […] Ki and IC50 values were calculated by the non-linear regression analysis using the equation for a sigmoid concentration-response curve (Graph-PAD Prism, San Diego, CA, USA).
The target of the next series is T3, hA1 AR (Homo sapiens, UniProt P30542).
T3 sequence (P30542 1-326): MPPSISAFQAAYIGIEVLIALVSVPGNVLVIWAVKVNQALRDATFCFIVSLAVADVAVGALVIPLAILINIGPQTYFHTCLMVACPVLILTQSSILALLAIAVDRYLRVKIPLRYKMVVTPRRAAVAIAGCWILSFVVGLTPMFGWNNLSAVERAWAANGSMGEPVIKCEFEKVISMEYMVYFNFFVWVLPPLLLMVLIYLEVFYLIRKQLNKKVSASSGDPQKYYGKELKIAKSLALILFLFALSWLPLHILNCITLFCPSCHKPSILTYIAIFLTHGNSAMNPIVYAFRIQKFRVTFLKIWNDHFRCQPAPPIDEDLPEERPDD
The series is described as follows: Competition binding of [3H]DPCPX to hA1 AR in CHO cell membranes. The following applies: for hA1AR Ki: displacement of [3H]DPCPX, CHO cells, mean ± SEM, n = 3–6; for inhibition at 10 µM: read-out: hA1AR percentage of inhibition (I%).

In another series the target is T4, hA2B AR (Homo sapiens, UniProt P29275).
T4 construct: expressed in transfected cells; host or cells: CHO cells
T4 sequence (P29275 1-332): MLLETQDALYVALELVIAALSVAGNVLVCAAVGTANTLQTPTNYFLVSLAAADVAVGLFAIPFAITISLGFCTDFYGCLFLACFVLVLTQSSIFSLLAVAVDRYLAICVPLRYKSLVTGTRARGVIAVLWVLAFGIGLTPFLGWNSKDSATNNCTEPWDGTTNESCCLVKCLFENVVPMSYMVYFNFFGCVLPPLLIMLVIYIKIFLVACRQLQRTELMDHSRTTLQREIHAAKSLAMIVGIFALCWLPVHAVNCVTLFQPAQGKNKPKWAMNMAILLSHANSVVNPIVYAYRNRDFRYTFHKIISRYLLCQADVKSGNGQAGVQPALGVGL
The experiment in a line: Inhibition of NECA stimulated adenylyl cyclase activity (cAMP assay) in CHO cells expressing hA2B receptor. It counts as cell-based. The following applies: for inhibition at 10 µM: CHO, at 10 μM of tested compound, cAMP assay, read-out: hA2BAR percentage of inhibition (I%); for IC50: NECA stimulated cAMP, hA2B CHO cells, read-out: hA2BAR IC50 (potency in cAMP assay). The source says:
At the end of the experiments, plates were read with the Perkin Elmer EnSight Multimode Plate Reader.
A general note: Changes in cAMP serve as a functional read-out for many G protein-coupled receptors.

Series [2] deals with T2, hA2A AR. The series is described as follows: Cyclic AMP assay in CHO cells expressing hA2A AR (modulation of basal cAMP). Particulars: for Pharmacological Behavior / Intrinsic Activity: cyclic AMP assay, hA2A CHO cells; for Intrinsic Activity: mean ± SEM.
Experimental: CHO cells transfected with hAR subtypes were washed with phosphate-buffered saline, detached with trypsin, and centrifuged for 10 min at 200× g. […] At the end of the experiments, plates were read with the Perkin Elmer EnSight Multimode Plate Reader.
Ki and IC50 values were calculated by the non-linear regression analysis using the equation for a sigmoid concentration-response curve (Graph-PAD Prism, San Diego, CA, USA).

Values joined by “and” are separate entries in the source; they are usually repeats but may differ in a detail not shown here. Equal values may be shown once. Read-outs that look alike come from different tables or passages of the source. Bounds are passed on as bounds.

T2 sequence (P29274 whole entry): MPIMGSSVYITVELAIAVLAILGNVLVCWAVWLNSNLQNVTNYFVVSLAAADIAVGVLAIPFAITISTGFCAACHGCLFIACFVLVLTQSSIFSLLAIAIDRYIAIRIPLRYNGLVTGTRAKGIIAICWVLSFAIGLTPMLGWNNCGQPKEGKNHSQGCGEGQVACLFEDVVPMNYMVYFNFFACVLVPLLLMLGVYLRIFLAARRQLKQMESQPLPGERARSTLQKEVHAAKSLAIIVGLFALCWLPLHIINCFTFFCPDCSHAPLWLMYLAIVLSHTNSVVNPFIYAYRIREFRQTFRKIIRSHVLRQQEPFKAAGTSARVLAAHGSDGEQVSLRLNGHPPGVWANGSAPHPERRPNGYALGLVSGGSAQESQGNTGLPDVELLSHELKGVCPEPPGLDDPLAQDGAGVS
Experimental for hA1 AR: as §1, §2, §3
Experimental for hA3 AR: as §1, §2, §3

In the case of `Nc1nc(NCCc2ccc(O)cc2)nc2nc(-c3ccco3)nn12` [ZM 241385, reference compound], the Ki at hA3 AR (read-out: hA3AR Ki, displacement of [125I]AB-MECA, CHO cells, mean ± SEM, n = 3–6) came out at 672 ± 51 nM.

The molecule `Nc1nc(N2CCC(Cc3ccccc3)CC2)nc2sc(-c3ccco3)nc12` [compound 1, 5-(4-Benzylpiperidin-1-yl)-2-(furan-2yl)thiazolo[5,4-d]pyrimidin-7-amine] returned a melting point of 197 to 199 °C. In addition, at hA3 AR, the Ki was above 10000 nM and the inhibition at 10 µM was found to be 8%. The molecule further came in with a Ki on hA2A AR [1] of 594 ± 48 nM. Also, the affinity at hA1 AR, expressed as Ki, was 586 ± 37 nM. Besides, on hA2B AR, the inhibition at 10 µM was determined as 21% and the IC50 is above 10000 nM.

For `Nc1nc(N2CCN(c3ccccc3)CC2)nc2sc(-c3ccco3)nc12` [compound 2, 2-(Furan-2-yl)-5-(4-phenylpiperazin-1-yl)thiazolo[5,4-d]pyrimidin-7-amine], the Ki on hA3 AR is above 10000 nM; at hA1 AR, 296 ± 22 nM. For the same molecule, the inhibition at 10 µM on hA3 AR stood at 18%; on hA2B AR it was 15%. Further, at hA2B AR, the IC50 was above 10000 nM.

Regarding `Nc1nc(N2CCN(Cc3ccccc3)CC2)nc2sc(-c3ccco3)nc12` [compound 3, 5-(4-Benzylpiperazin-1-yl)-2-(furan-2-yl)thiazolo[5,4-d]pyrimidin-7-amine], the melting point lay in the range of 181 to 183 °C. The molecule also gave a Ki at hA3 AR of 868 ± 82 nM. The same molecule had a Ki at hA2A AR [1] of 58 ± 5 nM. On hA1 AR, the Ki was determined as 180 ± 15 nM and the “hA1AR Ki” value is “good affinities”. The inhibition at 10 µM on hA2B AR came to 26%.

For `COCCOc1ccc(N2CCN(c3nc(N)c4nc(-c5ccco5)sc4n3)CC2)cc1` [compound 5, 2-(Furan-2-yl)-5-(4-(4-(2-methoxyethoxy)phenyl)piperazin-1-yl)thiazolo[5,4-d]pyrimidin-7-amine], the Ki on hA3 AR was 127 ± 15 nM; on hA2A AR [1], 326 ± 27 nM; on hA1 AR, 2350 ± 213 nM. Further, the inhibition at 10 µM on hA2B AR is 7%. For the same molecule, the IC50 at hA2B AR is above 10000 nM.

As to `Nc1nc(N2CCN(CCN3CCCC3)CC2)nc2sc(-c3ccco3)nc12` [compound 8, 2-(Furan-2-yl)-5-(4-(2-(pyrrolidin-1-yl)ethyl)piperazin-1-yl)thiazolo[5,4-d]pyrimidin-7-amine], the Ki at hA3 AR is above 10000 nM; at hA1 AR, 638 ± 56 nM. The results for the inhibition at 10 µM on hA3 AR and at hA2B AR were 25% and 19%, respectively. In addition, the IC50 at hA2B AR is above 10000 nM.

With `Nc1nc(NCCN2CCN(c3ccccc3)CC2)nc2sc(-c3ccco3)nc12` [compound 11, 2-(Furan-2-yl)-N^5-(2-(4-phenylpiperazin-1-yl)ethyl)thiazolo[5,4-d]pyrimidine-5,7-diamine], on hA2A AR [2], the IC50 amounted to 7.42 ± 0.68 nM, the “Pharmacological Behavior” value is on record as “Inverse agonist” and the “Intrinsic Activity” value is −52 ± 4. Further, on hA3 AR, the Ki is above 10000 nM and the inhibition at 10 µM came to 15%. For the same molecule, the Ki at hA2A AR [1] (read-out: hA2AAR Ki, displacement of [3H]ZM241385, CHO cells, mean ± SEM, n = 3–6) is 8.6 nM and 8.62 nM. Further, at hA1 AR, the Ki stood at 102 ± 9 nM and the “hA1AR Ki” value is on record as “good affinities”. Further, at hA2B AR, the inhibition at 10 µM came out at 13% and the IC50 is above 10000 nM.

Regarding `Nc1nc(NCCN2CCN(CCc3ccccc3)CC2)nc2sc(-c3ccco3)nc12` [compound 13, 2-(Furan-2-yl)-N^5-(2-(4-phenethylpiperazin-1-yl)ethyl)thiazolo[5,4-d]pyrimidine-5,7-diamine], the Ki is above 10000 nM at hA3 AR, 37 ± 3 nM at hA2A AR [1] and 522 ± 47 nM on hA1 AR. In addition, the inhibition at 10 µM on hA3 AR was 33%; on hA2B AR it was 29%. In addition, on hA2B AR, the IC50 was above 10000 nM.

As for `COCCOc1ccc(N2CCN(CCNc3nc(N)c4nc(-c5ccco5)sc4n3)CC2)cc1` [compound 14, 2-(Furan-2-yl)-N^5-(2-(4-(4-(2-methoxyethoxy)phenyl)piperazin-1-yl)ethyl)thiazolo[5,4-d]pyrimidine-5,7-diamine], the IC50 was 15.2 ± 1.3 nM on hA2A AR [2] and above 10000 nM on hA2B AR. Besides, the “Pharmacological Behavior” value on hA2A AR [2] is given as “Inverse agonist”. The “Intrinsic Activity” value at hA2A AR [2] is listed as −51 ± 5. Also, the Ki turned out to be 1490 ± 126 nM at hA3 AR, 18.3 ± 1.9 nM at hA2A AR [1] and 452 ± 38 nM at hA1 AR. Further, the inhibition at 10 µM at hA2B AR came to 17%.

Turning to `Nc1nc(NCCN2CCN(C(=O)c3ccco3)CC2)nc2sc(-c3ccco3)nc12` [compound 15, (4-(2-((7-Amino-2-(furan-2-yl)thiazolo[5,4-d]pyrimidin-5-yl)amino)ethyl)piperazin-1-yl)(furan-2-yl)methanone], the IC50 against hA2A AR [2] was 9.42 ± 0.87 nM; at hA2B AR it was above 10000 nM. The “Pharmacological Behavior” value on hA2A AR [2] is reported as “Inverse agonist”. Further, the “Intrinsic Activity” value at hA2A AR [2] is listed as −67 ± 5. In addition, the Ki at hA3 AR is above 10000 nM; at hA2A AR [1], 10.8 ± 1 nM; on hA1 AR, 436 ± 36 nM. Also, the values for the inhibition at 10 µM on hA3 AR and on hA2B AR were 23% and 16%, respectively.

Turning to `CCOC(=O)c1ccc(N2CCN(CCNc3nc(N)c4nc(-c5ccco5)sc4n3)CC2)cc1` [compound 16, Ethyl 4-(4-(2-((7-amino-2-(furan-2-yl)thiazolo[5,4-d]pyrimidin-5-yl)amino)ethyl)piperazin-1-yl) benzoate], the Ki at hA3 AR was above 10000 nM; at hA2A AR [1], 264 ± 24 nM; at hA1 AR, above 10000 nM. The results for the inhibition at 10 µM at hA3 AR, at hA1 AR and on hA2B AR were 34%, 31% and 26%, respectively. Besides, the IC50 at hA2B AR is above 10000 nM.

For `CCOC(=O)c1ccc(CNc2nc(N)c3nc(-c4ccco4)sc3n2)cc1` [compound 17, Ethyl 4-(((7-amino-2-(furan-2-yl)thiazolo[5,4-d]pyrimidin-5-yl)amino)methyl)benzoate], the Ki at hA3 AR, on hA2A AR [1] and on hA1 AR was above 10000 nM each time. The inhibition at 10 µM came to 28% on hA3 AR, 33% on hA2A AR [1] (read-out: hA2AAR percentage of inhibition (I%)), 29% on hA1 AR and 17% at hA2B AR. For the same molecule, on hA2B AR, the IC50 was above 10000 nM.

On to `COCCN1CCC(CNc2nc(N)c3nc(-c4ccco4)sc3n2)CC1` [compound 18, 2-(Furan-2-yl)-N^5-((1-(2-methoxyethyl)piperidin-4-yl)methyl)thiazolo[5,4-d]pyrimidine-5,7-diamine], for which the values for the Ki at hA3 AR, on hA2A AR [1] and on hA1 AR were above 10000 nM, 802 ± 73 nM and 524 ± 41 nM, respectively. Further, the inhibition at 10 µM was 28% on hA3 AR and 11% at hA2B AR. Further, the IC50 at hA2B AR is above 10000 nM.

As for `Nc1nc(NCC2CCN(Cc3ccccc3)CC2)nc2sc(-c3ccco3)nc12` [compound 19, N^5-((1-Benzylpiperidin-4-yl)methyl)-2-(furan-2-yl)thiazolo[5,4-d]pyrimidine-5,7-diamine], on hA2A AR [2], it took 14.8 ± 1.4 nM to reach half-maximal inhibition (IC50), the “Pharmacological Behavior” value is listed as “Inverse agonist” and the “Intrinsic Activity” value was −64 ± 4. In addition, at hA3 AR, the Ki was above 10000 nM and the inhibition at 10 µM was determined as 35%. Affinity on hA2A AR [1] was put at a Ki of 15.2 ± 1.7 nM. This molecule gave a Ki on hA1 AR of 365 ± 29 nM. For the same molecule, at hA2B AR, the inhibition at 10 µM came out at 18% and the IC50 is above 10000 nM.

For the molecule `Nc1nc(NCC2CCN(CCc3ccccc3)CC2)nc2sc(-c3ccco3)nc12` [compound 21, 2-(Furan-2-yl)-N^5-((1-phenethylpiperidin-4-yl)methyl)thiazolo[5,4-d]pyrimidine-5,7-diamine], the Ki at hA3 AR is above 10000 nM; on hA2A AR [1], 483 ± 34 nM; at hA1 AR, 247 ± 18 nM. The figures for the inhibition at 10 µM at hA3 AR and at hA2B AR were 21% and 27%, respectively. Besides, the IC50 at hA2B AR is above 10000 nM.

A word on the Ki: it is the dissociation constant of the complex between target and ligand, obtained from inhibition or displacement. A word on the melting point: it is the temperature, or range, at which the solid turns liquid. Broadly, the inhibition is the percentage by which the read-out fell short of the control. The term IC50 denotes the midpoint of a concentration-inhibition curve.
